Assay type in all cases: cell-based, human
Experiment [1] concerns AP-1. The experiment can be described thus: AP-1 luciferase reporter, transient transfection of HeLa cells. The note with it: TPA 5 nM 16 h. The text has this: (§1) Plasmids—The pBabe-NIC-1 (pNIC-1) expression vector encoding constitutively active Notch-1 (NIC-1) was described previously (36,37,51). This vector was derived from the pBabe-puro retroviral vector and includes a cDNA sequence encoding amino acids 1759-2556 of human Notch-1 with a Myc tag fused to its carboxyl terminus. Human NIC-1 deletion mutants were generated by PCR using a full-length human Notch-1 expression vector as the template. The Notch-dependent reporter plasmid containing four CBF1 binding sites and an simian virus 40 promoter fused to luciferase (p4×CBF1luc) was described previously (52). The AP-1 reporter plasmid (p1×AP1luc) containing a collagenase promoter fragment (−73/+67) with a single AP-1 binding site in the luciferase reporter vector pGL2-basic (Promega) was described previously (53). The NF-κB reporter plasmid (p3×κBluc) containing three NF-κB binding sites and a minimal promoter fused to luciferase was a kind gift of Dr. Shigeki Miyamoto (University of Wisconsin Medical School). […]
(§2) For each transfection, cells were incubated for 26 h after transfection and then treated with TPA (final concentration: 5 nM) or the vehicle (DMSO). […] Luciferase activity was normalized by the protein content of the lysates, determined by Bradford assay using γ-globulin as a standard.

For experiment [2], the system named is AP-1. Description: AP-1 luciferase reporter, transient transfection of K562 cells. The text has this: Plasmids—The pBabe-NIC-1 (pNIC-1) expression vector encoding constitutively active Notch-1 (NIC-1) was described previously (36,37,51). This vector was derived from the pBabe-puro retroviral vector and includes a cDNA sequence encoding amino acids 1759-2556 of human Notch-1 with a Myc tag fused to its carboxyl terminus. Human NIC-1 deletion mutants were generated by PCR using a full-length human Notch-1 expression vector as the template. The Notch-dependent reporter plasmid containing four CBF1 binding sites and an simian virus 40 promoter fused to luciferase (p4×CBF1luc) was described previously (52). The AP-1 reporter plasmid (p1×AP1luc) containing a collagenase promoter fragment (−73/+67) with a single AP-1 binding site in the luciferase reporter vector pGL2-basic (Promega) was described previously (53). The NF-κB reporter plasmid (p3×κBluc) containing three NF-κB binding sites and a minimal promoter fused to luciferase was a kind gift of Dr. Shigeki Miyamoto (University of Wisconsin Medical School). The pBabe-H-Ras(12V) expression vector encoding constitutively active H-Ras was a kind gift of Dr. Charming Der (University of North Carolina-Chapel Hill). This vector was derived from the pBabe-puro retroviral vector and includes a cDNA encoding H-Ras with a Gly to Val mutation at amino acid 12.
Transient Transfections—K562 cells (5×10^5) were collected by centrifugation at 240×g for 8 min at 4° C. and resuspended in 4 ml of complete IMEM. Plasmid DNAs (1 μg of reporter and 2 μg of effector) were added to 150 μl of IMEM, incubated with Superfect (4 μl/1 μg DNA; Qiagen) for 10 min at room temperature and then added to cells.
For each transfection, cells were incubated for 26 h after transfection and then treated with TPA (final concentration: 5 nM) or the vehicle (DMSO). After incubating for another 12 or 16 h, cells were harvested and assayed for luciferase activity. Luciferase activity was normalized by the protein content of the lysates, determined by Bradford assay using γ-globulin as a standard.
(A reporter such as luciferase makes a cellular process visible.)

In experiment [3] the test system is CSL (CBF1). The experiment can be described thus: CSL-dependent luciferase reporter, transient transfection of HeLa cells.
From the text: as §1, §2

Experiment [4] deals with c-Fos. Description: Western blot of Fos protein. Particulars: K562-NIC-1 versus K562-Babe. Here is the method:
(§3) Stable Transfection—K562 cells were stably transfected by electroporation with a Bio-Rad Gene pulser electroporator. Cells (5×10^6) were washed with ice-cold PBS, resuspended in 0.5 ml of ice-cold PBS, mixed with 5 μg linearized plasmid DNA, and subjected to electroporation (960 microfarad; 220 V) in a 0.4 cm-wide electroporation cuvette (BTX). pBabe and pNIC-1 were linearized with NotI. Cells were then added to 20 ml of complete IMEM, grown for 48 h, and diluted in complete IMEM containing 1.5 μg/ml puromycin (pools of K562-Babe and K562-NIC-1 cells). Stably transfected cells were analyzed for erythroid differentiation as soon as the pools were generated by benzidine staining to reduce the probability of phenotypic changes that may result from prolonged growth.
To measure the phosphorylation state of components of the MAPK pathway, K562-Babe and K562-NIC-1 cells (1×10^6) were collected after treatment with 5 nM TPA or DMSO for 30 min. Cells were washed once with ice-cold PBS, cell pellets were resuspended in 30 μl ice-cold PBS and were immediately boiled in 70 μl SDS sample buffer for 10 min. Proteins (10 μl) were resolved by SDS-PAGE on a 10% acrylamide gel and transferred to Immobilon P membrane (Millipore). […] Antigen-antibody complexes were detected with ECL Plus™ (Amersham Life Science) according to manufacturer's instructions.
Background: A western blot detects proteins with antibodies after separation by electrophoresis.

The subject of experiment [5] is NF-κB. Description: NF-κB luciferase reporter (p3×κBluc), transient transfection of K562 cells. Particulars: TPA.
From the text: as §1, §2

In experiment [6] the test system is IκBα. Description: Northern blotting of IκBα transcripts in K562-Babe and K562-NIC-1 cells. Particulars: 5 nM TPA 12 h, stably transfected NIC-1. As for the experimental part:
as §3
Northern Blotting—Total RNA from K562-Babe and K562-NIC-1 cells was extracted with Triazol (Life Technologies, Inc.). Ten μg of RNA per sample was electrophoresed on a 1% agarose, 6.6% formaldehyde gel and then transferred overnight to a Magnacharge nylon membrane (Osmonics). RNA was cross-linked to the membrane by UV irradiation. Membranes were prehybridized for 30 min at 60° C. in ExpressHyb hybridization solution (Clontech). […] Radioactivity was quantitated by PhosphorImager analysis with ImageQuant software (Molecular Dynamics).

The test system of experiment [7] is GAL4-c-Jun. The experiment can be described thus: GAL4-c-Jun transactivation, transient assays in K562 cells. The note with it: K562, data not presented.

“Also recorded” adds a separate entry of the source.

As to “NIC-1: constitutively active Notch-1 intracellular domain, amino acids 1759-2556 of human Notch-1 with carboxyl-terminal Myc tag, expressed from pBabe-NIC-1”, in experiment [1], the “repression of TPA-induced AP-1-mediated activation” value is “repressed”. Also, in experiment [2] (K562, both AP-1 reporters), the “component of TPA-induced AP-1 reporter activity insensitive to NIC-1” value is around 30%. The “inhibition of H-Ras(12V)-activated AP-1 reporter activity” value in experiment [2] (K562, cotransfected pBabe-H-Ras(12V)) was “almost completely inhibited; also recorded: completely inhibits”. The “concentration response curve for AP-1 repression relative to CSL-dependent activation” value in experiment [2] (K562, increasing amounts of NIC-1 expression vector, TPA 5 nM 12 h) is given as “slightly shifted to the left”. Also, the “repression of TPA-induced AP-1 reporter activity” value in experiment [2] (K562, p1×AP1luc, TPA 5 nM 12 or 16 h) was “repressed”. In addition, the “degree of repression of AP-1 reporter with tandem AP-1 binding sites upstream of a β-globin promoter” value in experiment [2] (K562, pβ106(AP1)2luc, TPA) is “comparable to that seen with the MMP1 promoter”. Besides, the “inhibition of TPA-inducible AP-1 activity” value in experiment [2] (K562, range of TPA concentrations, 16 h) was 70%. In experiment [3], the “activation of CSL-dependent reporter activity” value is listed as “strongly activated”. Also, in experiment [4], the “effect on Fos protein levels” value is listed as “did not affect”. For the same substance, the “effect on TPA-induced NF-κB-dependent reporter activity” value in experiment [5] is “no effect”. In experiment [6], the “effect on TPA induction of IκBα transcripts” value is recorded as “no effect”. For the same substance, the “inhibition of GAL4-c-Jun-mediated transactivation” value in experiment [7] is listed as “did not significantly inhibit”.

For the origin of these results see patent US20030148954A1, “Agents and methods for modulating activator protein-1-mediated cellular processes” (Wisconsin Alumni Research Foundation, priority 2001, published 2003).
